Laboratory results taken from ChEMBL document CHEMBL4177730, “Rational modification of semaxanib and sunitinib for developing a tumor growth inhibitor targeting ATP binding site of tyrosine kinase” (2018).
Calls of active or inactive are those of the source.

Key:
Format in all cases: functional, cell-based
SR = assay: Growth inhibition of human SR cells at 10 uM after 48 hrs by sulforhodamine B assay
TK-10 = assay: Growth inhibition of human TK10 cells at 10 uM after 48 hrs by sulforhodamine B assay
KM12 = assay: Growth inhibition of human KM12 cells at 10 uM after 48 hrs by sulforhodamine B assay
BT-549 = assay: Growth inhibition of human BT549 cells at 10 uM after 48 hrs by sulforhodamine B assay
HT-29 = assay: Growth inhibition of human HT-29 cells at 10 uM after 48 hrs by sulforhodamine B assay
RPMI-8226 = assay: Growth inhibition of human RPMI8226 cells at 10 uM after 48 hrs by sulforhodamine B assay
SF-268 = assay: Growth inhibition of human SF268 cells at 10 uM after 48 hrs by sulforhodamine B assay
HL-60(TB) = assay: Growth inhibition of human HL-60(TB) cells at 10 uM after 48 hrs by sulforhodamine B assay
IGROV-1 = assay: Growth inhibition of human IGROV1 cells at 10 uM after 48 hrs by sulforhodamine B assay
HCC 2998 = assay: Growth inhibition of human HCC2998 cells at 10 uM after 48 hrs by sulforhodamine B assay
HCT-116 = assay: Growth inhibition of human HCT116 cells at 10 uM after 48 hrs by sulforhodamine B assay
NCI/ADR-RES = assay: Growth inhibition of human NCI-ADR-RES cells at 10 uM after 48 hrs by sulforhodamine B assay
M14 = assay: Growth inhibition of human M14 cells at 10 uM after 48 hrs by sulforhodamine B assay
NCI-H460 = assay: Growth inhibition of human NCI-H460 cells at 10 uM after 48 hrs by sulforhodamine B assay
SNB-19 = assay: Growth inhibition of human SNB19 cells at 10 uM after 48 hrs by sulforhodamine B assay
HOP-62 = assay: Growth inhibition of human HOP62 cells at 10 uM after 48 hrs by sulforhodamine B assay
PC-3 = assay: Growth inhibition of human PC3 cells at 10 uM after 48 hrs by sulforhodamine B assay
HCT-15 = assay: Growth inhibition of human HCT15 cells at 10 uM after 48 hrs by sulforhodamine B assay
CCRF-CEM = assay: Growth inhibition of human CCRF-CEM cells at 10 uM after 48 hrs by sulforhodamine B assay
OVCAR-4 = assay: Growth inhibition of human OVCAR4 cells at 10 uM after 48 hrs by sulforhodamine B assay
SN12C = assay: Growth inhibition of human SN12C cells at 10 uM after 48 hrs by sulforhodamine B assay
MDA-MB-468 = assay: Growth inhibition of human MDA-MB-468 cells at 10 uM after 48 hrs by sulforhodamine B assay
A549 = assay: Growth inhibition of human A549/ATCC cells at 10 uM after 48 hrs by sulforhodamine B assay
UACC-62 = assay: Growth inhibition of human UACC62 cells at 10 uM after 48 hrs by sulforhodamine B assay
SK-MEL-5 = assay: Growth inhibition of human SK-MEL-5 cells at 10 uM after 48 hrs by sulforhodamine B assay
LOX IMVI = assay: Growth inhibition of human LOXIMVI cells at 10 uM after 48 hrs by sulforhodamine B assay
OVCAR-3 = assay: Growth inhibition of human OVCAR3 cells at 10 uM after 48 hrs by sulforhodamine B assay
NCI-H23 = assay: Growth inhibition of human NCI-H23 cells at 10 uM after 48 hrs by sulforhodamine B assay
RXF 393 = assay: Growth inhibition of human RXF393 cells at 10 uM after 48 hrs by sulforhodamine B assay
K562 = assay: Growth inhibition of human K562 cells at 10 uM after 48 hrs by sulforhodamine B assay
CAKI-1 = assay: Growth inhibition of human CAKI-1 cells at 10 uM after 48 hrs by sulforhodamine B assay
SNB-75 = assay: Growth inhibition of human SNB75 cells at 10 uM after 48 hrs by sulforhodamine B assay
UO-31 = assay: Growth inhibition of human UO31 cells at 10 uM after 48 hrs by sulforhodamine B assay
U-251 = assay: Growth inhibition of human U251 cells at 10 uM after 48 hrs by sulforhodamine B assay
ACHN = assay: Growth inhibition of human ACHN cells at 10 uM after 48 hrs by sulforhodamine B assay
MDA-MB-231 = assay: Growth inhibition of human MDA-MB-231 cells at 10 uM after 48 hrs by sulforhodamine B assay
OVCAR-8 = assay: Growth inhibition of human OVCAR8 cells at 10 uM after 48 hrs by sulforhodamine B assay
COLO 205 = assay: Growth inhibition of human COLO205 cells at 10 uM after 48 hrs by sulforhodamine B assay
MCF7 = assay: Growth inhibition of human MCF7 cells at 10 uM after 48 hrs by sulforhodamine B assay
T47D = assay: Growth inhibition of human T47D cells at 10 uM after 48 hrs by sulforhodamine B assay
SK-MEL-2 = assay: Growth inhibition of human SK-MEL-2 cells at 10 uM after 48 hrs by sulforhodamine B assay
SW-620 = assay: Growth inhibition of human SW620 cells at 10 uM after 48 hrs by sulforhodamine B assay
SK-MEL-28 = assay: Growth inhibition of human SK-MEL-28 cells at 10 uM after 48 hrs by sulforhodamine B assay
EKVX = assay: Growth inhibition of human EKVX cells at 10 uM after 48 hrs by sulforhodamine B assay
A498 = assay: Growth inhibition of human A498 cells at 10 uM after 48 hrs by sulforhodamine B assay
OVCAR-5 = assay: Growth inhibition of human OVCAR5 cells at 10 uM after 48 hrs by sulforhodamine B assay
MOLT-4 = assay: Growth inhibition of human MOLT4 cells at 10 uM after 48 hrs by sulforhodamine B assay
NCI-H522 = assay: Growth inhibition of human NCI-H522 cells at 10 uM after 48 hrs by sulforhodamine B assay
SK-OV-3 = assay: Growth inhibition of human SKOV3 cells at 10 uM after 48 hrs by sulforhodamine B assay
Malme-3M = assay: Growth inhibition of human MALME-3M cells at 10 uM after 48 hrs by sulforhodamine B assay
MDA-MB-435 = assay: Growth inhibition of human MDA-MB-435 cells at 10 uM after 48 hrs by sulforhodamine B assay
DU-145 = assay: Growth inhibition of human DU145 cells at 10 uM after 48 hrs by sulforhodamine B assay
NCI-H322M = assay: Growth inhibition of human NCI-H322M cells at 10 uM after 48 hrs by sulforhodamine B assay
786-0 = assay: Growth inhibition of human 786-0 cells at 10 uM after 48 hrs by sulforhodamine B assay
HOP-92 = assay: Growth inhibition of human HOP92 cells at 10 uM after 48 hrs by sulforhodamine B assay
SF-539 = assay: Growth inhibition of human SF539 cells at 10 uM after 48 hrs by sulforhodamine B assay
NCI-H226 = assay: Growth inhibition of human NCI-H226 cells at 10 uM after 48 hrs by sulforhodamine B assay
SF-295 = assay: Growth inhibition of human SF295 cells at 10 uM after 48 hrs by sulforhodamine B assay
Hs-578T = assay: Growth inhibition of human Hs 578T cells at 10 uM after 48 hrs by sulforhodamine B assay

Measured: growth inhibition (GI)

O=C1/C(=C\c2cccn2C(=O)c2ccccc2)c2ccccc2N1c1c(Cl)cccc1Cl
inactive: all assays above
